For data set [1], the system named is Neuro 2A cells. Put plainly: Selective toxicity (ratio of cytotoxicity/minimum effective dose). The format is cell-based, mouse. The text has this: 2. No specific test method for selective toxicity of the compounds is known, therefore the selective toxicity is defined as the ratio of cytotoxicity/minimum effective dose.
Data set [2] in a line: Cytotoxic action on Neuro 2A cells. In kind it is cell-based. Particulars: mouse, no attached cells observed in more than 2/3 of the whole cells, read-out: Cytotoxicity (B). The method, then:
(§1) Morphological changes of Neuro 2A cells are observed according to the method of Baglioni et al. [J. Biol. Chem., 266: 18620 (1991)].
Neuro 2A cells were plated at a density of 1×10^4 cells/cm^2 in a 24-hole plate, and cultured in MEM-H with 10% FBS. On the next day, lactacystin or lactacystin derivatives were added at the concentration of 0.05-100 μM, and morphological changes of the cells with time were observed by phase contrast microscopy.

In data set [3] the test system is Neuro 2A cells. Put plainly: Activity of neuritogenesis (bipolar outgrowth of neurites) in Neuro 2A cells, minimum effective dose. In kind it is cell-based, mouse. Particulars: for minimal effective concentration: Mus musculus, N2a, Neuro 2A cells, concentration in which approximately 20% of whole cells showed bipolar outgrowth of neurites, read-out: Minimum effective dose (A). The method, then:
as §1
Neuro 2A cells were plated at a density of 1×10^4 cells/cm^2 in a 24-hole plate, and cultured in MEM-H with 10% FBS.

Data set [4] concerns intracelluar cAMP level in Neuro 2A. Put plainly: Transient increase in the intracellular cAMP level in mouse neuroblastoma cell line Neuro 2A. In kind it is cell-based. On the technique in general: Cyclic AMP is a second messenger, typically raised through Gs and lowered through Gi signalling.
The conditions of data set [5]: cited from earlier work.

As for `CC(C)[C@H](O)[C@@]1(C(=O)Sc2ccccn2)NC(=O)[C@H](C)[C@@H]1O` [Example 22, 3-hydroxy-2-(1-hydroxy-2-methylpropyl)-4-methyl-5-oxo-2-pyrrolidine-2-pyridylthiocarboxylate], the “Selective toxicity (B/A)” value in data set [1] was 16. In addition, in data set [2], the MCC was determined as 12.5 µM. For the same compound, the minimal effective concentration in data set [3] was found to be 0.8 µM.

For `CC(C)[C@H](O)[C@@]1(C(=O)Sc2ccncc2)NC(=O)[C@H](C)[C@@H]1O` [Example 23, 3-hydroxy-2-(1-hydroxy-2-methylpropyl)-4-methyl-5-oxo-2-pyrrolidine-4-pyridylthiocarboxylate], the “Selective toxicity (B/A)” value in data set [1] is given as 16. In addition, the MCC in data set [2] came to 12.5 µM. Moreover, the minimal effective concentration in data set [3] is 0.8 µM.

Consider `CC(C)[C@H](O)[C@@]1(C(=O)SCCC(N)C(=O)O)NC(=O)[C@H](C)[C@@H]1O` (stereo partly shown) [Example 24], for which the “Selective toxicity (B/A)” value in data set [1] amounted to 16. Further, in data set [2], the MCC came out at 25 µM. The minimal effective concentration in data set [3] was determined as 1.56 µM.

Turning to `CC(SC(=O)[C@]1([C@@H](O)C(C)C)NC(=O)[C@H](C)[C@@H]1O)C(=O)NCC(=O)O` (stereo partly shown) [Example 25, 2-S-propionylglycine-3-hydroxy-2-(1-hydroxy-2-methylpropyl)-4-methyl-5-oxo-2-pyrrolidinecarboxylate], the “Selective toxicity (B/A)” value in data set [1] is 8. Further, the MCC in data set [2] worked out at 12.5 µM. In data set [3], the minimal effective concentration was 1.56 µM.

For the compound `CC(C)[C@H](O)[C@@]1(C(=O)SC[C@H](NC(=O)CC[C@H](N)C(=O)O)C(=O)NCC(=O)O)NC(=O)[C@H](C)[C@@H]1O` [Example 26, glutathione-3-hydroxy-2-(1-hydroxy-2-methylpropyl)-4-methyl-5-oxo-2-pyrrolidinethiocarboxylate], the “Selective toxicity (B/A)” value in data set [1] turned out to be 31. Further, in data set [2], the MCC was determined as 25 µM. In addition, the minimal effective concentration in data set [3] came out at 0.8 µM.

Regarding `CC(=O)N[C@@H](CSC(=O)[C@]1([C@@H](O)C(C)C)NC(=O)[C@H](C)[C@@H]1O)C(=O)O` [lactacystin], the “intracelluar cAMP level” value in data set [4] is “cause a transient increase in the intracelluar cAMP level”. The cytotoxicity entry in data set [5] (known compound) is “highly cytotoxic”. Moreover, the neuritogenesis activity result in data set [5] (known from literature) is reported as “having neuritogenesis activity”. Further, the neuritogenesis result in data set [3] (mouse neuroblastoma cell line Neuro 2A) was “induce neuritogenesis”.

The values above are taken from US5869675A, “Lactacystin derivatives” (The Kitasato Institute, priority 1994, dated 1999).
